Measured values reported in patent EP2931723B1, “NEW BICYCLIC COMPOUNDS AND THEIR USE AS ANTIBACTERIAL AGENTS AND -LACTAMASE INHIBITORS” (Fedora Pharmaceuticals Inc., priority 2012, dated 2014).

Columns and labels:
P. aerug JMI 149 = experiment: MIC, antibacterial and synergistic activity; format: cell-based; settings: P. aerug JMI 149 (Bla+++D+); for MIC Aztreonam + inhibitor: Aztreonam + inhibitor at 4 µg/mL; for MIC Ceftazidime + inhibitor: Ceftazidime + inhibitor at 4 µg/mL; for MIC Meropenem + inhibitor: Meropenem + inhibitor at 4 µg/mL; for MIC: substance alone, read-out: MIC
[1] = test system: metallo β-lactamase producing bacteria; experiment: MIC in combination with various antibiotics against metallo β-lactamase producing bacteria (Tables 10-12); format: cell-based; settings: Enterobacter cloacae, agent alone
Method: (§1) In the Tables 10 - 12, compounds herein disclosed were tested in combination with various antibiotics against metallo β-lactamase producing bacteria.

P. aerug JMI 2686 = experiment: MIC, antibacterial and synergistic activity; format: cell-based; settings: P. aerug JMI 2686 (KPC-2 (Cpase)); substance alone
E. coli JMI 11103 = experiment: MIC, antibacterial and synergistic activity; format: cell-based; settings: for MIC Aztreonam + inhibitor / MIC Ceftazidime + inhibitor / MIC Meropenem + inhibitor: E. coli JMI 11103 (CTX-M15 (Intermediate ESBL)); for MIC Aztreonam + inhibitor: Aztreonam + inhibitor at 4 µg/mL; for MIC Ceftazidime + inhibitor: Ceftazidime + inhibitor at 4 µg/mL; for MIC Meropenem + inhibitor: Meropenem + inhibitor at 4 µg/mL; for MIC: Escherichia coli, JMI11103, E. coli JMI 11103 (CTX-M15 (Intermediate ESBL)), substance alone
E. coli JMI 4080 = experiment: MIC, antibacterial and synergistic activity; format: cell-based; settings: for MIC Aztreonam + inhibitor / MIC Ceftazidime + inhibitor / MIC Meropenem + inhibitor: E. coli JMI 4080 (Tem-10); for MIC Aztreonam + inhibitor: Aztreonam + inhibitor at 4 µg/mL; for MIC Ceftazidime + inhibitor: Ceftazidime + inhibitor at 4 µg/mL; for MIC Meropenem + inhibitor: Meropenem + inhibitor at 4 µg/mL; for MIC: Escherichia coli, JMI4080, E. coli JMI 4080 (Tem-10), substance alone
K. pneumo JMI 4088 = experiment: MIC, antibacterial and synergistic activity; format: cell-based; settings: K. pneumo JMI 4088 (KPC-3 (Cpase)); substance alone
TEM-1 = TEM-1 (Escherichia coli, UniProt P62593); experiment: β-lactamase inhibitory activity, spectrophotometric nitrocefin assay; format: biochemical; settings: nitrocefin as substrate
Chain of TEM-1 (P62593 24-286 limits assumed): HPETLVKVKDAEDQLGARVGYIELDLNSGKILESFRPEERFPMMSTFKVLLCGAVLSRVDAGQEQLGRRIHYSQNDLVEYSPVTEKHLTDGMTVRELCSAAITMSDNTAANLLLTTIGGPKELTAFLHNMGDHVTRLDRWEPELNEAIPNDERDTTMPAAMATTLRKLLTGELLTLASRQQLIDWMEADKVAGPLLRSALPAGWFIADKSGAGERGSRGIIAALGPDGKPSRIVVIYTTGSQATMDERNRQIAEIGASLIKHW
Method: (§2) The inhibitory activities of compounds herein disclosed against various enzymes were measured by spectrophotometric assay using […] and using nitrocefin as a substrate [J. Antimicrob. Chemother., 28, pp 775-776 (1991)] . The concentration of inhibitor (IC50) which inhibits by 50% the reaction of hydrolysis of nitrocefin by the enzyme is determined. […] Table 13 Test for β-lactamase Inhibitory Activity

CMY-2 = CMY-2 (Klebsiella pneumoniae, UniProt Q48434); experiment: as above; format: biochemical; settings: nitrocefin as substrate
Chain of CMY-2 (Q48434 21-381, species assumed): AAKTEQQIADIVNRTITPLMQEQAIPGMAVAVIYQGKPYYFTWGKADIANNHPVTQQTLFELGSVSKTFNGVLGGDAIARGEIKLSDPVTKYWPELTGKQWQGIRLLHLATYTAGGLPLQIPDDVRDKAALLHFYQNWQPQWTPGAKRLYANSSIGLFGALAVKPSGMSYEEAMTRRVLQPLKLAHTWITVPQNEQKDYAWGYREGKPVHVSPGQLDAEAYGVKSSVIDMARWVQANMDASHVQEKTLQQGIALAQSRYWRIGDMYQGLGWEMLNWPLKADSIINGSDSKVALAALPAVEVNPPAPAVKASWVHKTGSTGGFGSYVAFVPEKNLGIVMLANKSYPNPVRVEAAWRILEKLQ
Method: as §2

CTX-M-9 = CTX-M-9 (Escherichia coli, UniProt Q9L5C8); experiment: as above; format: biochemical; settings: nitrocefin as substrate
Chain of CTX-M-9 (Q9L5C8 29-291): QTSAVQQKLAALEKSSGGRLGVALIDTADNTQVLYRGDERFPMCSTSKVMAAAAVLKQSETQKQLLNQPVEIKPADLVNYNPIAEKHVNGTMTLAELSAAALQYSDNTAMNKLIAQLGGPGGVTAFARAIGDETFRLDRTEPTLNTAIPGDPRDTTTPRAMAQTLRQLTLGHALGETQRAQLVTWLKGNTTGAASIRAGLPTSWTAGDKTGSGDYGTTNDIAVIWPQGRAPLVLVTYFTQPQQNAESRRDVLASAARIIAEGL
Method: as §2

KPC-2 = KPC-2 (Klebsiella pneumoniae, UniProt Q9F663); experiment: as above; format: biochemical; settings: nitrocefin as substrate
Chain of KPC-2 (Q9F663 25-293, looked up, species assumed): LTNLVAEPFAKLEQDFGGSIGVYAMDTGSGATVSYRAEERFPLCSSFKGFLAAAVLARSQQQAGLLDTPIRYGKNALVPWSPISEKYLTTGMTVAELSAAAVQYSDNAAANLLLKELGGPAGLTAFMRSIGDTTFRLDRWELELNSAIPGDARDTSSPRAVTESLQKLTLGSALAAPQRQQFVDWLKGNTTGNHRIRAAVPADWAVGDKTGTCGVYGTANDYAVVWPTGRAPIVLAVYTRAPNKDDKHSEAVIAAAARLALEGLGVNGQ
Method: as §2

E. coli JMI 10768 = experiment: MIC, antibacterial and synergistic activity; format: cell-based; settings: E. coli JMI 10768 (CTX-M15 (Weak ESBL)); Meropenem + inhibitor at 4 µg/mL
K. pneumo JMI 4106 = experiment: MIC, antibacterial and synergistic activity; format: cell-based; settings: K. pneumo JMI 4106 (KPC-3, TEM-1, SHV-12, SHV-141); for MIC Aztreonam + inhibitor: Aztreonam + inhibitor at 4 µg/mL; for MIC Ceftazidime + inhibitor: Ceftazidime + inhibitor at 4 µg/mL; for MIC Meropenem + inhibitor: Meropenem + inhibitor at 4 µg/mL; for MIC: substance alone, read-out: MIC
K. pneumo JMI 2697 = experiment: MIC, antibacterial and synergistic activity; format: cell-based; settings: K. pneumo JMI 2697 (IMP-4 (Cpase)); for MIC Aztreonam + inhibitor: Aztreonam + inhibitor at 4 µg/mL; for MIC Ceftazidime + inhibitor: Ceftazidime + inhibitor at 4 µg/mL; for MIC Meropenem + inhibitor: Meropenem + inhibitor at 4 µg/mL; for MIC: substance alone
Method: as §1

A. baumanii JMI 2659 = experiment: MIC, antibacterial and synergistic activity; format: cell-based; settings: A. baumanii JMI 2659 (Ges-14 (Cpase)); for MIC Aztreonam + inhibitor: Aztreonam + inhibitor at 4 µg/mL; for MIC Ceftazidime + inhibitor: Ceftazidime + inhibitor at 4 µg/mL; for MIC Meropenem + inhibitor: Meropenem + inhibitor at 4 µg/mL; for MIC: Acinetobacter baumannii, JMI2659, substance alone, read-out: MIC

## CC(=O)NNC(=O)[C@@H]1CC[C@@H]2CN1C(=O)N2OS(=O)(=O)O [Ex. 5, (2S,5R)-N'-acetyl-7-oxo-6-(sulfooxy)-1,6-diazabicyclo[3.2.1]octane-2-carbohydrazide]
P. aerug JMI 149
  MIC Aztreonam + inhibitor: >4 µg/mL
  MIC Ceftazidime + inhibitor: >16 µg/mL
  MIC Meropenem + inhibitor: 0.5 µg/mL
  MIC: > 16 µg/mL
[1]; Isolate No 4, Enzyme VIM-6
  MIC: 64
[1]; Isolate No 10, Enzyme IMP-26
  MIC: 64
P. aerug JMI 2686
  MIC: 16 µg/mL
E. coli JMI 11103
  MIC Aztreonam + inhibitor: ≤0.062 µg/mL
  MIC Ceftazidime + inhibitor: ≤0.25 µg/mL
  MIC Meropenem + inhibitor: ≤0.031 µg/mL
  MIC: 8 µg/mL
E. coli JMI 4080
  MIC Aztreonam + inhibitor: ≤0.062 µg/mL
  MIC Ceftazidime + inhibitor: ≤0.25 µg/mL
  MIC Meropenem + inhibitor: ≤0.031 µg/mL
  MIC: 2 µg/mL
K. pneumo JMI 4088
  MIC: > 16 µg/mL
TEM-1
  IC50: 0.052 ± 0.004 µM
CMY-2
  IC50: 0.008 ± 0.001 µM
CTX-M-9
  IC50: 0.327 ± 0.02 µM
KPC-2
  IC50: 0.091 ± 0.009 µM
E. coli JMI 10768
  MIC Meropenem + inhibitor: ≤0.031 µg/mL
K. pneumo JMI 4106
  MIC Aztreonam + inhibitor: 1 µg/mL
  MIC Ceftazidime + inhibitor: 0.5 µg/mL
  MIC Meropenem + inhibitor: 2 µg/mL
  MIC: > 16 µg/mL
K. pneumo JMI 2697
  MIC Aztreonam + inhibitor: ≤0.062 µg/mL
  MIC Ceftazidime + inhibitor: >2 µg/mL
  MIC Meropenem + inhibitor: 0.125 µg/mL
  MIC: 16 µg/mL
A. baumanii JMI 2659
  MIC Aztreonam + inhibitor: >4 µg/mL
  MIC Ceftazidime + inhibitor: >16 µg/mL
  MIC Meropenem + inhibitor: >2 µg/mL
  MIC: > 16 µg/mL

## O=C(NO[C@H]1CCNC1)[C@@H]1CC[C@@H]2CN1C(=O)N2OS(=O)(=O)O [Ex. 1, (2S,5R)-7-Oxo-N-[(3S)-pyrrolidin-3-yloxy]-6-(sulfooxy)-1,6-diazabicyclo[3.2.1]octane-2-carboxamide]
P. aerug JMI 149
  MIC Aztreonam + inhibitor: >4 µg/mL
  MIC Ceftazidime + inhibitor: 4 µg/mL
  MIC Meropenem + inhibitor: 0.5 µg/mL
  MIC: > 16 µg/mL
P. aerug JMI 2686
  MIC: > 16 µg/mL
E. coli JMI 11103
  MIC Aztreonam + inhibitor: ≤.062 µg/mL
  MIC Ceftazidime + inhibitor: ≤0.25 µg/mL
  MIC Meropenem + inhibitor: ≤.031 µg/mL
  MIC: 8 µg/mL
E. coli JMI 4080
  MIC Aztreonam + inhibitor: 1 µg/mL
  MIC Ceftazidime + inhibitor: 1 µg/mL
  MIC Meropenem + inhibitor: ≤.031 µg/mL
  MIC: 8 µg/mL
K. pneumo JMI 4088
  MIC: 4 µg/mL
E. coli JMI 10768
  MIC Meropenem + inhibitor: ≤.031 µg/mL
K. pneumo JMI 4106
  MIC Aztreonam + inhibitor: 0.25 µg/mL
  MIC Ceftazidime + inhibitor: ≤0.25 µg/mL
  MIC Meropenem + inhibitor: ≤.031 µg/mL
  MIC: 16 µg/mL
K. pneumo JMI 2697
  MIC Aztreonam + inhibitor: 0.25 µg/mL
  MIC Ceftazidime + inhibitor: 16 µg/mL
  MIC Meropenem + inhibitor: >2 µg/mL
  MIC: 16 µg/mL
A. baumanii JMI 2659
  MIC Aztreonam + inhibitor: >4 µg/mL
  MIC Ceftazidime + inhibitor: >16 µg/mL
  MIC Meropenem + inhibitor: 2 µg/mL
  MIC: > 16 µg/mL

## O=C(NO[C@H]1CCCNC1)[C@@H]1CC[C@@H]2CN1C(=O)N2OS(=O)(=O)O [Ex. 2, (2S,5R)-7-Oxo-N-[(3S)-piperidin-3-yloxy] -6-(sulfooxy)-1,6-diazabicyclo[3.2.1]octane-2-carboxamide]
P. aerug JMI 149
  MIC Aztreonam + inhibitor: >4 µg/mL
  MIC Ceftazidime + inhibitor: 4 µg/mL
  MIC Meropenem + inhibitor: 0.5 µg/mL
  MIC: > 16 µg/mL
P. aerug JMI 2686
  MIC: > 16 µg/mL
E. coli JMI 11103
  MIC Aztreonam + inhibitor: ≤.062 µg/mL
  MIC Ceftazidime + inhibitor: ≤0.25 µg/mL
  MIC Meropenem + inhibitor: ≤.031 µg/mL
  MIC: 4 µg/mL
E. coli JMI 4080
  MIC Aztreonam + inhibitor: ≤.062 µg/mL
  MIC Ceftazidime + inhibitor: ≤0.25 µg/mL
  MIC Meropenem + inhibitor: ≤.031 µg/mL
  MIC: 4 µg/mL
K. pneumo JMI 4088
  MIC: 1 µg/mL
E. coli JMI 10768
  MIC Meropenem + inhibitor: ≤.031 µg/mL
K. pneumo JMI 4106
  MIC Aztreonam + inhibitor: ≤.062 µg/mL
  MIC Ceftazidime + inhibitor: ≤0.25 µg/mL
  MIC Meropenem + inhibitor: ≤.031 µg/mL
  MIC: > 16 µg/mL
K. pneumo JMI 2697
  MIC Aztreonam + inhibitor: ≤.062 µg/mL
  MIC Ceftazidime + inhibitor: 0.5 µg/mL
  MIC Meropenem + inhibitor: ≤.031 µg/mL
  MIC: 4 µg/mL
A. baumanii JMI 2659
  MIC Aztreonam + inhibitor: >4 µg/mL
  MIC Ceftazidime + inhibitor: >16 µg/mL
  MIC Meropenem + inhibitor: >2 µg/mL
  MIC: > 16 µg/mL
